# Measured values as given in ChEMBL document CHEMBL3507680, “University of Dundee, Gates Library screen for HepG2 cell viability”.
# Test: Human HepG2 cell viability assay in 384 well format
# Assay type: toxicity, cell-based
# Design: dose 125 nL, time 70.5 hour; cytotoxicity at 70.5 h: concentration not given beside the values
# Conditions: HepG2 cells, read-out: Inhibition
row,SMILES,cytotoxicity at 70.5 h [%]
1,Cc1cc(C)n(CC2CCCN2C(=O)c2c[nH]c3ncccc23)n1 (centres undefined),27.2
2,Cc1nc(CN2CCN3C[C@H](Oc4cncnc4)C[C@H]3C2)cs1,5.24
3,COC(=O)c1cc(CN2CCC(c3noc(C)n3)CC2)c(C)s1,2.05
4,Cn1ccnc1SCCNC(=O)CC1CCc2ccccc21 (centres undefined),-10.6
5,CNS(=O)(=O)c1ccc(CN2CCC(c3ccncc3)CC2)cc1,-14.4
6,NCCC1CN(c2nc(-c3ccccc3)nc3c2CCNC3)CCO1 (centres undefined),2.96
7,c1ccc(COCC2CNCc3nccn3C2)nc1 (centres undefined),0.439
8,O=C1CO[C@H]2CN(S(=O)(=O)c3ccccc3)C[C@H]2N1CC1CCCCC1,-11.1
9,CCOCC(=O)N1C[C@@H]2CCN(c3cnccn3)C[C@@H]2C1,-3.75
10,CS(=O)(=O)NCc1nnc2n1CCN(Cc1ccccn1)C2,-9
11,CCOc1ccccc1C(=O)Nn1c(C)cc(C)cc1=O,-6.5
12,CC(C)n1ccc(CN2CCOC(CNc3cccnn3)C2)n1 (centres undefined),3.22
13,FC(F)(F)Oc1ccc(-c2noc([C@@H]3Cc4nc[nH]c4CN3)n2)cc1,-4.51
14,COc1ncccc1CNC(=O)NC1CCOc2ccccc21 (centres undefined),-13.3
15,CS(=O)(=O)N1CC(c2nc[nH]n2)c2cc(C(=O)NC3CC3)ccc21 (centres undefined),-3.52
16,Cn1ccnc1CN1CCCCC1c1nc(-c2ccccc2)no1 (centres undefined),-10.6
17,Cc1ccc(CCCC(=O)N2CCN(C3CCCN(C)C3)CC2)s1 (centres undefined),-2.97
18,O=C(C1CCCC1)N1CC2(CCCN(C3COC3)C2)Cc2ccccc21 (centres undefined),-15.4
19,Nc1nccnc1C1CN(C(=O)c2ccnnc2)CCO1 (centres undefined),-6.55
20,COc1ccccc1Oc1ncccc1CNC(=O)[C@@H](N)[C@@H](C)O,-1.67
21,O=C1CCC2(CCCN(CCc3ccccc3)C2)N1Cc1cccnc1 (centres undefined),-25
22,COc1ncccc1C(=O)Nc1ccccc1-c1ccc(=O)n(C)n1,3.64
23,O=C(NC1CCN(CC2CC2)C1)c1ccc(C(=O)c2cc[nH]c2)cc1 (centres undefined),-9.44

row,SMILES,cytotoxicity at 70.5 h [%]
1,CCN(Cc1ccncc1)CC1(O)CCN(C(=O)c2cccc(C)c2)C1 (centres undefined),-4.75
2,COC(=O)c1cccn1C1CCN(C(=O)c2cc(F)ccc2C)CC1,-16.9
3,Cc1noc(C)c1CC(=O)NCC(CC(C)C)N1CCOCC1 (centres undefined),-4.86
4,Cc1csc(C2CCCCN2C(=O)c2cnn3ccc(C)nc23)n1 (centres undefined),-18.6
5,COc1ccc(NC(=O)c2nc(C)sc2C)cn1,28
6,COc1ccccc1N1CCN(C(=O)CCn2ccc(C)n2)CC1,23.2
7,CSc1sc(NC(=O)Cc2c(C)nc(C)[nH]c2=O)nc1C,3.66
8,OCc1cc2ccccc2nc1N1CCCC1,-15.5
9,Cc1noc(C)c1CCCNC(=O)C1CCN(C(=O)C2CC2)CC1,24.8
10,COc1ccccc1C(C)(C)NC(=O)NCCC(=O)NC1CCCC1,-12.5
11,CCCc1n[nH]c(C2CN(C(=O)CCCn3cccn3)CCO2)n1 (centres undefined),-7.13
12,Cc1ncc(CNC2CC(=O)N(CCc3ccc(F)cc3)C2)n1C (centres undefined),-10.7
13,Cc1cc(-c2ccnn2C)nc(C2CCCN(S(C)(=O)=O)C2)n1 (centres undefined),-13.9
14,Oc1nc(C2CC2)nc2c1nnn2C1CCN(Cc2ccoc2)CC1,-6.55
15,CCOc1ccc(C(=O)N(CCOC)Cc2c(C)nn(CC)c2C)o1,-6.36
16,Cc1c2c(C(F)F)cc(SCC(=O)O)nc2nn1C,-2.86
17,Cc1cccc(CN2CCCC(O)(CNCCN3CCCCC3)C2=O)c1 (centres undefined),2.73
18,OC1CCN(c2ccccc2NCc2nc(-c3ccoc3)no2)CC1,36.2
19,CN1CCC(N2CC[C@H](c3nc4ccc(C(F)(F)F)cc4[nH]3)C2)CC1,-13.2
20,CN1CC(=O)N(c2cnn(C)c2)CC12CCN(CC1CC1)C2 (centres undefined),-2.29
21,CN(CC(=O)Nc1cc(-n2nnnc2C2CC2)ccc1F)C1CCC1,-8.29
22,Nc1nonc1C(=O)N1Cc2ccccc2OC2(CCOCC2)C1,2.48
23,CCc1n[nH]c(C2CN(C(=O)Cc3ccc(C)nc3)CCO2)n1 (centres undefined),9.01

row,SMILES,cytotoxicity at 70.5 h [%]
1,Fc1cccc(-c2nc(CN3CCCC(Cn4cncn4)C3)co2)c1 (centres undefined),16.1
2,CC(C)Nc1ncnc2c1CCN(C(=O)NCc1cccnc1)CC2,-1.24
3,Cc1cc(NC(=O)NCC(O)c2ccc(Cl)cc2Cl)n(C)n1 (centres undefined),-11.8
4,N#Cc1cnc2ccccc2c1N1CCN(CCC(=O)O)CC1,1.24
5,COCc1ncn2c1CN(S(=O)(=O)c1cccs1)CCC2,10.6
6,COc1cc(C(=O)N2CCCC(c3cc(C)[nH]n3)C2)ccc1C (centres undefined),19.1
7,Cc1ccc(N2CCCC3(CCN(C(=O)NC4CCCC4)C3)C2)nn1 (centres undefined),-12.8
8,CC(=O)N1CCCC(c2nc(-c3ccccc3)c[nH]2)C1 (centres undefined),-3.53
9,CCO[C@@H]1CN(Cc2scnc2C)[C@@H]2CCCO[C@@H]21,-10.5
10,N#CCc1ccc(OCC(=O)NS(=O)(=O)c2cccs2)cc1,1.77
11,Cc1csc(N2CCCN(C(=O)c3ccsc3)CC2)n1,-12
12,Cc1c(CNC(=O)C2CCCN2C(=O)C2CC2)oc2ccccc12 (centres undefined),-7.22
13,Cc1cnn(CC2CCCN2C(=O)c2cccc3[nH]ncc23)c1 (centres undefined),1.32
14,CN(C)C(=O)CN1CCC2(CCCN(Cc3ccsc3)C2)C1=O (centres undefined),-15.6
15,CCc1cnc(N2CC3(CCN(C(=O)c4ccoc4)C3)C2)nc1,-1.44
16,COc1cccn(CC(=O)N2CCCC3(CCOCC3)C2)c1=O,-1.15
17,COCc1cnc2n1CCN(C(=O)C1=CCCCC1)C2C (centres undefined),17.6
18,CCN(Cc1ccc(O)c(C(=O)O)c1)CC1CCOCC1,-0.0411
19,CC(Cn1cccn1)NC(=O)N1CCN(Cc2ccncc2)CC1 (centres undefined),-5.78
20,CCN1CCC2(CC1)CC(Nc1ncccn1)CO2 (centres undefined),-1.36
21,Cc1ccc2c(c1C)OCC2NCc1ccc(C#N)cc1 (centres undefined),16.8
22,COc1cc(C(=O)N2CCO[C@H]3[C@H](OCC4CC4)CC[C@@H]32)ccc1F,-5.96
23,CC(=O)c1cc(Br)cc(F)c1OCC(=O)NC(C)C,-4.15

row,SMILES,cytotoxicity at 70.5 h [%]
1,CC(C)CNC(=O)NC(=O)C(C)Nc1cccc(CN2CCOC2=O)c1 (centres undefined),-10.8
2,Cc1cccc(OCCNC(=O)C(C)S(=O)(=O)C2CCCC2)c1 (centres undefined),-9.37
3,O=C(O)c1ccc2[nH]cc(CN3CCCC3)c2c1,6.43
4,CCc1nc(NC2CCCN(C(=O)c3cccs3)C2)c2cnn(C)c2n1 (centres undefined),7.73
5,CC(C)Cc1noc(CN2CCOC(Cn3cncn3)C2)n1 (centres undefined),-5.1
6,CCS(=O)(=O)N1Cc2nccn2CC(Cn2cncn2)C1 (centres undefined),0.16
7,CCO[C@H]1CC[C@H]2[C@H]1OCCN2C(=O)COc1ccccc1,-4.98
8,O=C(NCC(F)(F)F)C1CSCN1S(=O)(=O)c1ccccc1F (centres undefined),26
9,O=C1CN(C(=O)c2cc(Cl)ccc2F)c2ccccc2N1,37.1
10,Cn1cnnc1S(=O)(=O)C1CCN(C(=O)c2ccco2)CC1,10.3
11,Cc1ccc(C)n1-c1c(C(=O)NCC(C)Cn2cccn2)cnn1C (centres undefined),-21.4
12,O=C(C1CCC1)N1CCN(Cc2ccccc2F)[C@H]2CS(=O)(=O)C[C@H]21,-4.65
13,CC(C)(C)S(=O)(=O)c1ccc(N2CCC(n3cncn3)CC2)cn1,14.6
14,COCCNC(=O)N1CCN(C(C)C(=O)NC(C)C)CC1 (centres undefined),-5.13
15,O=C(Cc1c(F)cccc1F)N1CCN(CC(=O)N2CCCC2)CC1,-5.05
16,O=C(O)c1cc(-c2cccnc2)cc(S(=O)(=O)NCc2ccccn2)c1,-5.41
17,CN1CCC(NC(=O)Nc2cnn(-c3ccccc3Cl)c2)C1=O (centres undefined),-7.73
18,CC(=O)N(Cc1noc(C)n1)C1CCN(Cc2ccon2)C1 (centres undefined),37.1
19,CC(C)CC(NCc1cscn1)c1ccccn1 (centres undefined),-7.87
20,Cn1cccc1C(=O)NC(C)(C(N)=O)c1cccc(C(F)(F)F)c1 (centres undefined),-55.1
21,Fc1ccc(-c2cnc(C3CCNCC3)cn2)cc1,-2.13
22,COCCOCCC(=O)N1CCC(c2ccccc2C)C1 (centres undefined),-4.21
23,COc1ccc(S(=O)(=O)NCCC(O)c2ccoc2)c(C)c1 (centres undefined),-5.52

row,SMILES,cytotoxicity at 70.5 h [%]
1,CC(C)[C@@H]1CN(C(=O)CN(C)Cc2ccccc2)C[C@H]1C(=O)O,-6.53
2,CCSc1ncc(CN2CCN(c3ncc(C)c(N)n3)CC2)cn1,-9.95
3,Clc1cncc(NCc2cccc(OCCN3CCOCC3)c2)n1,-8.21
4,CNc1nc2ncc(Cl)cc2cc1C#N,-2.12
5,CN(C)CCC(Nc1nc(N)nc2c1CCNCC2)c1ccccc1 (centres undefined),-8.45
6,CC(C)NC(=O)N1CCC2(CC(=O)N(c3cccc(C#N)c3)C2)C1 (centres undefined),2.44
7,O=C1CCC2(CCCN(C(=O)NCc3ccccc3)CC2)N1 (centres undefined),-8.58
8,COCCn1c(CN2CCCCO2)cnc1S(=O)(=O)CC1CCCCC1,-2.46
9,CC(=O)NCC(=O)N1CCN(C)c2ncccc2C1,-11.3
10,Cc1nnc(CN2CCN(Cc3nccn3C)CC2)n1C,-8.45
11,CNc1oc(-c2ccc(S(=O)(=O)N(C)C)o2)nc1C#N,22.7
12,CCN1CC(C(=O)NCCCc2nc(C)c(C)s2)CC1=O (centres undefined),-9.75
13,CN(C)Cc1cnc(C2CCN(C(=O)c3ccccc3F)C2)[nH]1 (centres undefined),-3.2
14,Cc1cc(NC(=O)N(CCO)Cc2ccsc2)no1,-4.98
15,N[C@@H]1CC[C@H](C(=O)NCc2ccc3nonc3c2)C1,-13.2
16,CCNC(=O)c1cc2n(n1)CCCO2,-12.7
17,Cc1nc(N2CCCC2)nc2c1CCN(C(=O)C1CCC1)CC2,-12.5
18,CN1CCCN(C(=O)NCCNc2ncccn2)CC1,17.7
19,Cc1ccc(-c2ccnc(NCC3(N(C)C)CCOCC3)n2)c(C)n1,-4
20,N#CC1(NC(=O)c2cc(Cl)c3c(c2)OCCCO3)CCC1,-4.84
21,O=C(CN1C=Nc2ccccc2S1(=O)=O)NCC1CC1,-7.99
22,COc1cc(CCC(=O)N2CCC(c3cc4nccnc4[nH]3)CC2)on1,28.5
